# Test results reported in US7704995B2 (Exelixis, Inc., priority 2003, dated 2010).
# pIC50: −log10 of the molar value.
# Molecular target: T1, Chk1 (Homo sapiens, UniProt O14757)
# T1 construct: purchased Upstate Biotechnology
# T1 sequence (O14757 1-476): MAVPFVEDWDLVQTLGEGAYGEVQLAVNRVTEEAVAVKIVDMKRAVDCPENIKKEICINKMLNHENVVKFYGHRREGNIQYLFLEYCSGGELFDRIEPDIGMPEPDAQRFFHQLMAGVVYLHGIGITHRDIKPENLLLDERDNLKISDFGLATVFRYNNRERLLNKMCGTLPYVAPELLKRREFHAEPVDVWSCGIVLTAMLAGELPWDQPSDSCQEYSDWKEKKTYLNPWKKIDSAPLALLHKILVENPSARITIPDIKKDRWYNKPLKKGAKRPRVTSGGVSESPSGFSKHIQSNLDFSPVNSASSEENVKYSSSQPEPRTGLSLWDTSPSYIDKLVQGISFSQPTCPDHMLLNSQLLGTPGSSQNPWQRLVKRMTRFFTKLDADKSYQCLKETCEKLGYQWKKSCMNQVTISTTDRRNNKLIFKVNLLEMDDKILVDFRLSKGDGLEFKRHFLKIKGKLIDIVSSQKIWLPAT
# Assay: Chk1 kinase assay: incorporation of γ-33P ATP into immobilized myelin basic protein
# Assay type: biochemical
# Conditions: Table 11; Chk1 only; read-out: Chk1 IC50
# Outline: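 Plates coated with MBP, then kinase reactions in Hepes pH 7.6 buffer with 10 mM MgCl2 and 1% DMSO were started by adding unlabeled plus γ-33P ATP (10 μM for Chk1 at 10 nM enzyme; 30 μM for Chk2 at 20 nM enzyme). After 1 h at room temperature, plates were washed and counted.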
row,pIC50,SMILES
1,> 7.30,"Nc1ncc(-c2cccc(CN[C@H]3CCc4ccccc43)c2)nc1C(=O)NCCc1c[nH]cn1 [Example 558, 3-amino-6-(3-{[(1S)-2,3-dihydro-1H-inden-1-ylamino]methyl}phenyl)-N-[2-(1H-imidazol-4-yl)ethyl]pyrazine-2-carboxamide]"
2,> 7.30,"CNCCNC(=O)c1nc(-c2cccc(CN[C@H]3CCc4ccccc43)c2)cnc1N [Example 559, 3-amino-6-(3-{[(1S)-2,3-dihydro-1H-inden-1-ylamino]methyl}phenyl)-N-[2-(methylamino)ethyl]pyrazine-2-carboxamide]"
3,≤ 5.00,"Nc1ncc(-c2cccc(C(=O)NCc3ccccc3)c2)nc1C(=O)c1cccc(F)c1 [Example 560, 3-{5-amino-6-[(3-fluorophenyl)carbonyl]pyrazin-2-yl}-N-(phenylmethyl)benzamide]"
4,6.00 to 7.30,"Nc1ncc(-c2cccc(CN[C@H]3CCc4ccccc43)c2)nc1C(=O)NCCCO [Example 561, 3-amino-6-(3-{[(1S)-2,3-dihydro-1H-inden-1-ylamino]methyl}phenyl)-N-(3-hydroxypropyl)pyrazine-2-carboxamide]"
5,≤ 5.00,"CC(C)(C)OC(=O)N1CCC(NC(=O)c2nc(-c3cccc(C(=O)NCc4ccccc4)c3)cnc2N)CC1 [Example 562, 1,1-dimethylethyl 4-({[3-amino-6-(3-{[(phenylmethyl)amino]carbonyl}phenyl)pyrazin-2-yl]carbonyl}amino)piperidine-1-carboxylate]"
6,≤ 5.00,"CC(C)(C)OC(=O)N1CCC(CNC(=O)c2nc(-c3cccc(C(=O)NCc4ccccc4)c3)cnc2N)CC1 [Example 563, 1,1-dimethylethyl 4-[({[3-amino-6-(3-{[(phenylmethyl)amino]carbonyl}phenyl)pyrazin-2-yl]carbonyl}amino)methyl]piperidine-1-carboxylate]"
7,6.00 to 7.30,"Nc1ncc(-c2cccc(C(=O)NCc3ccccc3)c2)nc1C(=O)NC1CCNCC1 [Example 564, 3-amino-6-(3-{[(phenylmethyl)amino]carbonyl}phenyl)-N-piperidin-4-ylpyrazine-2-carboxamide]"
8,6.00 to 7.30,"Nc1ncc(-c2cccc(C(=O)NCc3ccccc3)c2)nc1C(=O)NCC1CCNCC1 [Example 565, 3-amino-6-(3-{[(phenylmethyl)amino]carbonyl}phenyl)-N-(piperidin-4-ylmethyl)pyrazine-2-carboxamide]"
9,5.00 to 6.00,"Nc1ncc(-c2cccc(C(=O)NCc3ccccc3)c2)nc1C(=O)N1CCOCC1 [Example 566, 3-[5-amino-6-(morpholin-4-ylcarbonyl)pyrazin-2-yl]-N-(phenylmethyl)benzamide]"
10,≤ 5.00,"CC(C)(C)OC(=O)N1CCC(NC(=O)c2nc(-c3cccc(C(=O)NCc4ccccc4)c3)cnc2N)C1 (stereo not drawn) [Example 567, 1,1-dimethylethyl 3-({[3-amino-6-(3-{[(phenylmethyl)amino]carbonyl}phenyl)pyrazin-2-yl]carbonyl}amino)pyrrolidine-1-carboxylate]"
11,6.00 to 7.30,"Nc1ncc(-c2cccc(C(=O)NCc3ccccc3)c2)nc1C(=O)NC1CCNC1 (stereo not drawn) [Example 568, 3-amino-6-(3-{[(phenylmethyl)amino]carbonyl}phenyl)-N-pyrrolidin-3-ylpyrazine-2-carboxamide]"
12,6.00 to 7.30,"Nc1ncc(-c2cccc(CO)c2)nc1-c1nnc(-c2ccco2)[nH]1 [Example 570, {3-[5-amino-6-(5-furan-2-yl-4H-1,2,4-triazol-3-yl)pyrazin-2-yl]phenyl}methanol]"
13,≤ 5.00,"COc1cccc(-c2nnc(-c3nc(-c4cccc(CO)c4)cnc3N)[nH]2)c1 [Example 571, [3-(5-amino-6-{5-[3-(methyloxy)phenyl]-4H-1,2,4-triazol-3-yl}pyrazin-2-yl)phenyl]methanol]"
14,6.00 to 7.30,"Nc1ncc(-c2cccc(CO)c2)nc1C(=O)NNC(=O)Nc1ccccc1 [Example 572, 2-({3-amino-6-[3-(hydroxymethyl)phenyl]pyrazin-2-yl}carbonyl)-N-phenylhydrazinecarboxamide]"
15,≤ 5.00,"CN1CCN(C(=O)c2nc(-c3cccc(C(=O)NCc4ccccc4)c3)cnc2N)CC1 [Example 573, 3-{5-amino-6-[(4-methylpiperazin-1-yl)carbonyl]pyrazin-2-yl}-N-(phenylmethyl)benzamide]"
16,≤ 5.00,"Nc1ncc(-c2cccc(C(=O)NCc3ccccc3)c2)nc1C(=O)N1CCN(c2ccc(F)cc2)CC1 [Example 574, 3-(5-amino-6-{[4-(4-fluorophenyl)piperazin-1-yl]carbonyl}pyrazin-2-yl)-N-(phenylmethyl)benzamide]"
17,≤ 5.00,"Nc1ncc(-c2cccc(C(=O)NCc3ccccc3)c2)nc1C(=O)N1CCN(Cc2ccccc2)CC1 [Example 575, 3-(5-amino-6-{[4-(phenylmethyl)piperazin-1-yl]carbonyl}pyrazin-2-yl)-N-(phenylmethyl)benzamide]"

row,pIC50,SMILES
1,5.00 to 6.00,"COC(=O)CNC(=O)c1nc(-c2cccc(C(=O)NCc3ccccc3)c2)cnc1N [Example 576, methyl N-{[3-amino-6-(3-{[(phenylmethyl)amino]carbonyl}phenyl)pyrazin-2-yl]carbonyl}glycinate]"
2,≤ 5.00,"Nc1ncc(-c2cccc(C(=O)NCc3ccccc3)c2)nc1C(=O)NCC(=O)O [Example 577, N-{[3-amino-6-(3-{[(phenylmethyl)amino]carbonyl}phenyl)pyrazin-2-yl]carbonyl}glycine]"
3,≤ 5.00,"Nc1ncc(-c2cccc(C(=O)NCc3ccccc3)c2)nc1C(=O)c1cc(F)cc(F)c1 [Example 578, 3-{5-amino-6-[(3,5-difluorophenyl)carbonyl]pyrazin-2-yl}-N-(phenylmethyl)benzamide]"
4,≤ 5.00,"Nc1ncc(-c2cccc(C(=O)NCc3ccccc3)c2)nc1C(=O)c1ccc(-c2ccccc2)cc1 [Example 579, 3-[5-amino-6-(biphenyl-4-ylcarbonyl)pyrazin-2-yl]-N-(phenylmethyl)benzamide]"
5,6.00 to 7.30,"Nc1ncc(-c2cccc(CO)c2)nc1-c1nc(-c2cccnc2)n[nH]1 [Example 580, {3-[5-amino-6-(3-pyridin-3-yl-1H-1,2,4-triazol-5-yl)pyrazin-2-yl]phenyl}methanol]"
6,≤ 5.00,"Nc1ncc(-c2cccc(CO)c2)nc1-c1nc(-c2ccc(Cl)cc2)n[nH]1 [Example 581, (3-{5-amino-6-[3-(4-chlorophenyl)-1H-1,2,4-triazol-5-yl]pyrazin-2-yl}phenyl)methanol]"
7,6.00 to 7.30,"CC(C)(C)c1nnc(-c2nc(-c3cccc(CN[C@H]4CCc5ccccc54)c3)cnc2N)[nH]1 [Example 582, 5-(3-{[(1S)-2,3-dihydro-1H-inden-1-ylamino]methyl}phenyl)-3-[5-(1,1-dimethylethyl)-4H-1,2,4-triazol-3-yl]pyrazin-2-amine]"
8,6.00 to 7.30,"Nc1ncc(-c2cccc(CO)c2)nc1-c1nc(-c2cccs2)n[nH]1 [Example 583, (3-{5-amino-6-[3-(2-thienyl)-1H-1,2,4-triazol-5-yl]pyrazin-2-yl}phenyl)methanol]"
9,6.00 to 7.30,"COc1cccc(-c2n[nH]c(-c3nc(-c4cccc(CN[C@H]5CCc6ccccc65)c4)cnc3N)n2)c1 [Example 584, 5-(3-{[(1S)-2,3-dihydro-1H-inden-1-ylamino]methyl}phenyl)-3-{3-[3-(methyloxy)phenyl]-1H-1,2,4-triazol-5-yl}pyrazin-2-amine]"
10,5.00 to 6.00,"CN(C)CCCNC(=O)c1nc(-c2cccc(CN[C@H]3CCc4ccccc43)c2)cnc1N [Example 585, 3-amino-6-(3-{[(1S)-2,3-dihydro-1H-inden-1-ylamino]methyl}phenyl)-N-[3-(dimethylamino)propyl]pyrazine-2-carboxamide]"
11,6.00 to 7.30,"Nc1ncc(-c2cccc(CN[C@H]3CCc4ccccc43)c2)nc1C(=O)NCCCn1ccnc1 [Example 586, 3-amino-6-(3-{[(1S)-2,3-dihydro-1H-inden-1-ylamino]methyl}phenyl)-N-[3-(1H-imidazol-1-yl)propyl]pyrazine-2-carboxamide]"
12,≤ 5.00,"Nc1ncc(-c2cccc(C(=O)NCc3ccccc3)c2)nc1C(=O)c1ccc(Cl)c(F)c1 [Example 587, 3-{5-amino-6-[(4-chloro-3-fluorophenyl)carbonyl]pyrazin-2-yl}-N-(phenylmethyl)benzamide]"
13,≤ 5.00,"COc1ccc(C(=O)c2nc(-c3cccc(C(=O)NCc4ccccc4)c3)cnc2N)c(OC)c1 [Example 588, 3-(5-amino-6-{[2,4-bis(methyloxy)phenyl]carbonyl}pyrazin-2-yl)-N-(phenylmethyl)benzamide]"
14,≤ 5.00,"CN(C)c1ccc(C(=O)c2nc(-c3cccc(C(=O)NCc4ccccc4)c3)cnc2N)cc1 [Example 589, 3-(5-amino-6-{[4-(dimethylamino)phenyl]carbonyl}pyrazin-2-yl)-N-(phenylmethyl)benzamide]"
15,≤ 5.00,"COC(=O)[C@@H]1CCCN1C(=O)c1nc(-c2cccc(C(=O)NCc3ccccc3)c2)cnc1N [Example 590, methyl 1-{[3-amino-6-(3-{[(phenylmethyl)amino]carbonyl}phenyl)pyrazin-2-yl]carbonyl}-L-prolinate]"
16,≤ 5.00,"COC(=O)C1CCCN(C(=O)c2nc(-c3cccc(C(=O)NCc4ccccc4)c3)cnc2N)C1 (stereo not drawn) [Example 591, methyl 1-{[3-amino-6-(3-{[(phenylmethyl)amino]carbonyl}phenyl)pyrazin-2-yl]carbonyl}piperidine-3-carboxylate]"
